From patent US12594270B2, “Schizophrenic disorder treatment using combination therapy” (Cambridge Cognition Limited, priority 2019, dated 2026)

Experiments:
C57BL/6 mice = experiment: MK801 induced abnormally persistent latent inhibition; assay type: in vivo; conditions: 4 tone-shock pairings to produce low LI
Method: C57BL/6 mice will be used to investigate latent inhibition (LI) conditioned emotional response cessation of drinking model in mice as described in, e.g., Bay-Richter, et al., Enhanced Latent Inhibition in Dopamine Receptor-Deficient Mice is Sex-Specific for the D1 but not D2 Receptor Subtype: Implications for Antipsychotic Drug Action, Int. J. Neuropsychopharmacol. […] On Day 1 to Day 6, animals will undergo lick training where mice will have access to water in a chamber for 15 minutes and the number of licks per animal will be recorded. […] One group will receive 20 presentations [determined from prior experiments to produce reduced LI in controls] of a 5 second 85 dB tone with a 15 second inter-stimulus interval (pre-exposed group, PE); a control group of non-pre-exposed (NPE) mice will be placed in a testing chamber with access to water withdrawn for an identical period of time but will not receive a tone pre-exposure. […] Number of licks for each animal will be recorded and time taken to complete 80-90 licks (A) and 90-100 licks (B) recorded. […] A suppression ratio (SR) will be calculated according to the formula A/(A+B) yielding a scale of […]. […]
In a sixth series of experiments, the ability of the combined Tropisetron and Varenicline treatment to reverse the MK801 induced abnormally persistent latent inhibition effect will be assessed. […]

[1] = cited from earlier work

Compound | effect of MK801 on latent inhibition (C57BL/6 mice) | absorption from the gastrointestinal tract ([1]; background statement) | off-target gastrointestinal side effects ([1]; chronic administration, due to 5-HT3 receptor inhibitory activity) | cognitive effects in patients with schizophrenia ([1]; patients with schizophrenia, background statement)
C[C@]12N[C@H](Cc3ccccc31)c1ccccc12 [MK801] | produce abnormally persistent latent inhibition | – | – | –
CN1[C@@H]2CC[C@H]1C[C@@H](OC(=O)c1c[nH]c3ccccc13)C2 [Tropisetron] | – | almost completely absorbed | a reduction in gut transit and constipation | some pro-cognitive effects
